A value given as a limit tells only on which side of the number the result lay.

The assay concerns the target human HSV DNA polymerase UL30 (Human herpesvirus 1 (strain 17) (HHV-1) (Human herpes simplex virus 1), UniProt P04293). Kind of assay: biochemical. Conditions: 625 pM HSV polymerase, 20 minutes at room temperature; read-out: HSV-polymerase Biochemical IC50.
For `Cn1nc(C(=O)NCc2ccc(Cl)cc2)c2c1C(=O)N(CC1(S(C)(=O)=O)CC1)CC2` [Example 22, N-(4-Chlorobenzyl)-1-methyl-6-((1-(methylsulfonyl)cyclopropyl)methyl)-7-oxo-4,5,6,7-tetrahydro-1H-pyrazolo[3,4-c]pyridine-3-carboxamide], the half-maximal inhibitory concentration (IC50) amounted to 436 nM.

As to `Cn1nc(C(=O)NCc2ccc(C#N)c(F)c2)c2c1C(=O)N(CC1(S(C)(=O)=O)CC1)CC2` [Example 23, N-(4-Cyano-3-fluorobenzyl)-1-methyl-6-((1-(methylsulfonyl)cyclopropyl)methyl)-7-oxo-4,5,6,7-tetrahydro-1H-pyrazolo[3,4-c]pyridine-3-carboxamide], the IC50 was determined as 345 nM.

For the compound `Cn1nc(C(=O)OCc2ccc(C#N)cc2)c2c1C(=O)N(CC1(S(=O)(=O)C3CC3)CC1)CC2` [Example 24, 4-cyanobenzyl 6-((1-(cyclopropylsulfonyl)cyclopropyl)methyl)-1-methyl-7-oxo-4,5,6,7-tetrahydro-1H-pyrazolo[3,4-c]pyridine-3-carboxylate], the IC50 came to 467 nM.

Turning to `Cn1nc(C(=O)COc2ccc(C#N)cc2)c2c1C(=O)N(CC1(S(=O)(=O)C3CC3)CC1)CC2` [Example 25, 4-(2-(6-((1-(cyclopropylsulfonyl)cyclopropyl)methyl)-1-methyl-7-oxo-4,5,6,7-tetrahydro-1H-pyrazolo[3,4-c]pyridin-3-yl)-2-oxoethoxy)benzonitrile], the half-inhibitory concentration (IC50) worked out at 53 nM.

For the compound `Cn1nc(-c2nnc(Cc3ccc(C#N)cc3)o2)c2c1C(=O)N(CC1(S(=O)(=O)C3CC3)CC1)CC2` [Example 26, 4-((5-(6-((1-(Cyclopropylsulfonyl)cyclopropyl)methyl)-1-methyl-7-oxo-4,5,6,7-tetrahydro-1H-pyrazolo[3,4-c]pyridin-3-yl)-1,3,4-oxadiazol-2-yl)methyl)benzonitrile], the half-inhibitory concentration (IC50) is 3960 nM.

On to `Cn1nc(-c2noc(Cc3ccc(C#N)cc3)n2)c2c1C(=O)N(CC1(S(=O)(=O)C3CC3)CC1)CC2` [Example 28, 4-((3-(6-((1-(Cyclopropylsulfonyl)cyclopropyl)methyl)-1-methyl-7-oxo-4,5,6,7-tetrahydro-1H-pyrazolo[3,4-c]pyridin-3-yl)-1,2,4-oxadiazol-5-yl)methyl)benzonitrile], for which the concentration for half-maximal inhibition (IC50) was 29 nM.

In the case of `Cn1nc(-c2nnn(Cc3ccc(C#N)cc3)n2)c2c1C(=O)N(CC1(S(=O)(=O)C3CC3)CC1)CC2` [Example 29, 4-((5-(6-((1-(Cyclopropylsulfonyl)cyclopropyl)methyl)-1-methyl-7-oxo-4,5,6,7-tetrahydro-1H-pyrazolo[3,4-c]pyridin-3-yl)-2H-tetrazol-2-yl)methyl)benzonitrile], the half-maximal inhibitory concentration (IC50) came to 86 nM.

`Cn1nc(-c2nnnn2Cc2ccc(C#N)cc2)c2c1C(=O)N(CC1(S(=O)(=O)C3CC3)CC1)CC2` [Example 30, 4-((5-(6-((1-(cyclopropylsulfonyl)cyclopropyl)methyl)-1-methyl-7-oxo-4,5,6,7-tetrahydro-1H-pyrazolo[3,4-c]pyridin-3-yl)-1H-tetrazol-1-yl)methyl)benzonitrile]: the IC50 is 6240 nM.

Regarding `Cn1nc(C2=NOC(c3ccc(C#N)cc3)C2)c2c1C(=O)N(CC1(S(=O)(=O)C3CC3)CC1)CC2` (stereo not shown) [Example 31, 4-(3-(6-((1-(Cyclopropylsulfonyl)cyclopropyl)methyl)-1-methyl-7-oxo-4,5,6,7-tetrahydro-1H-pyrazolo[3,4-c]pyridin-3-yl)-4,5-dihydroisoxazol-5-yl)benzonitrile], the concentration for half-maximal inhibition (IC50) was 293 nM.

Take `Cn1nc(-c2cc(Cc3ccc(C#N)cc3)on2)c2c1C(=O)N(CC1(S(=O)(=O)C3CC3)CC1)CC2` [Example 34, 4-((3-(6-((1-(Cyclopropylsulfonyl)cyclopropyl)methyl)-1-methyl-7-oxo-4,5,6,7-tetrahydro-1H-pyrazolo[3,4-c]pyridin-3-yl)isoxazol-5-yl)methyl)benzonitrile]: the IC50 amounted to 10 nM.

Consider `Cn1nc(-c2cn(Cc3ccc(C#N)cc3)nn2)c2c1C(=O)N(CC1(S(=O)(=O)C3CC3)CC1)CC2` [Example 35, 4-((4-(6-((1-(Cyclopropylsulfonyl)cyclopropyl)methyl)-1-methyl-7-oxo-4,5,6,7-tetrahydro-1H-pyrazolo[3,4-c]pyridin-3-yl)-1H-1,2,3-triazol-1-yl)methyl)benzonitrile], for which the half-maximal inhibitory concentration (IC50) worked out at 141 nM.

`Cn1nc(C(=O)NCc2ccc(Cl)cc2)c2c1C(=O)N(CC1(S(=O)(=O)C(F)F)CC1)CC2` [Example 39, N-(4-Chlorobenzyl)-6-((1-((difluoromethyl)sulfonyl)cyclopropyl)methyl)-1-methyl-7-oxo-4,5,6,7-tetrahydro-1H-pyrazolo[3,4-c]pyridine-3-carboxamide]: the half-maximal inhibitory concentration (IC50) is 625 nM.

In the case of `N#Cc1ccc(CNC(=O)c2nn(C3CC3)c3c2CCN(CC2(S(=O)(=O)C4CC4)CC2)C3=O)cc1` [Example 43, N-(4-Cyanobenzyl)-1-cyclopropyl-6-((1-(cyclopropylsulfonyl)cyclopropyl)methyl)-7-oxo-4,5,6,7-tetrahydro-1H-pyrazolo[3,4-c]pyridine-3-carboxamide], the concentration for half-maximal inhibition (IC50) turned out to be 101 nM.

On to `O=C(NCc1ccc(Cl)cc1)c1n[nH]c2c1CCN(CC1(S(=O)(=O)C3CC3)CC1)C2=O` [Example 44, N-(4-Chlorobenzyl)-6-((1-(cyclopropylsulfonyl)cyclopropyl)methyl)-7-oxo-4,5,6,7-tetrahydro-1H-pyrazolo[3,4-c]pyridine-3-carboxamide], for which the IC50 is 137 nM.

Take `CS(=O)(=O)C1(CN2CCc3c(nn4c3C(=O)N(Cc3ccc(C#N)cc3)CC4)C2=O)CC1` [Example 46, 4-((8-((1-(Methylsulfonyl)cyclopropyl)methyl)-1,7-dioxo-3,4,7,8,9,10-hexahydropyrido[3′,4′: 3,4]pyrazolo[1,5-a]pyrazin-2 (1H)-yl)methyl)benzonitrile]: the IC50 is 1780 nM.

In the case of `N#Cc1ccc(CNC(=O)c2nn(CC3(CO)CC3)c3c2CCN(CC2(S(=O)(=O)C4CC4)CC2)C3=O)cc1` [Example 47, N-(4-Cyanobenzyl)-6-((1-(cyclopropylsulfonyl)cyclopropyl)methyl)-1-((1-(hydroxymethyl)cyclopropyl)methyl)-7-oxo-4,5,6,7-tetrahydro-1H-pyrazolo[3,4-c]pyridine-3-carboxamide], the IC50 came out at 59 nM.

As for `CS(=O)(=O)C1(CN2CCc3c(C(=O)NCc4ccc(C#N)cc4)nn(CC4(CO)CC4)c3C2=O)CC1` [Example 48, N-(4-Cyanobenzyl)-1-((1-(hydroxymethyl)cyclopropyl)methyl)-6-((1-(methylsulfonyl)cyclopropyl)methyl)-7-oxo-4,5,6,7-tetrahydro-1H-pyrazolo[3,4-c]pyridine-3-carboxamide], the concentration for half-maximal inhibition (IC50) was 801 nM.

Regarding `CC(C)(CO)S(=O)(=O)C1(CN2CCc3c(C(=O)NCc4ccc(C#N)cc4)n[nH]c3C2=O)CC1` [Example 49, N-(4-cyanobenzyl)-6-((1-((1-hydroxy-2-methylpropan-2-yl)sulfonyl)cyclopropyl)methyl)-7-oxo-4,5,6,7-tetrahydro-1H-pyrazolo[3,4-c]pyridine-3-carboxamide], the IC50 was 37 nM.

For the compound `Cn1nc(C(=O)NCc2ccc(Cl)cc2)c2c1C(=O)N(CC1(S(=O)(=O)C(C)(C)CO)CC1)CC2` [Example 50, N-(4-Chlorobenzyl)-6-((1-((1-hydroxy-2-methylpropan-2-yl)sulfonyl)cyclopropyl)methyl)-1-methyl-7-oxo-4,5,6,7-tetrahydro-1H-pyrazolo[3,4-c]pyridine-3-carboxamide], the half-inhibitory concentration (IC50) is 16 nM.

Take `Cn1nc(C(=O)NCc2ccc(Cl)nc2)c2c1C(=O)N(CC1(S(=O)(=O)C(C)(C)CO)CC1)CC2` [Example 51, N-((6-Chloropyridin-3-yl)methyl)-6-((1-((1-hydroxy-2-methylpropan-2-yl)sulfonyl)cyclopropyl)methyl)-1-methyl-7-oxo-4,5,6,7-tetrahydro-1H-pyrazolo[3,4-c]pyridine-3-carboxamide]: the IC50 stood at 89 nM.

Consider `Cn1nc(C(=O)NCc2ccc(C#N)cc2)c2c1C(=O)N(CC1(S(=O)(=O)C(C)(C)CO)CC1)CC2` [Example 52, N-(4-Cyanobenzyl)-6-((1-((1-hydroxy-2-methylpropan-2-yl)sulfonyl)cyclopropyl)methyl)-1-methyl-7-oxo-4,5,6,7-tetrahydro-1H-pyrazolo[3,4-c]pyridine-3-carboxamide], for which the IC50 came out at 19 nM.

With `Cn1nc(C(=O)NCc2ccc(F)cc2)c2c1C(=O)N(CC1(S(=O)(=O)C(C)(C)CO)CC1)CC2` [Example 53, N-(4-Fluorobenzyl)-6-((1-((1-hydroxy-2-methylpropan-2-yl)sulfonyl)cyclopropyl)methyl)-1-methyl-7-oxo-4,5,6,7-tetrahydro-1H-pyrazolo[3,4-c]pyridine-3-carboxamide], the 50% inhibitory concentration (IC50) was 70 nM.

With `C[C@H](NC(=O)c1nn(C)c2c1CCN(CC1(S(=O)(=O)C(C)(C)CO)CC1)C2=O)c1ccc(C#N)cc1` [Example 54, (S)-N-(1-(4-Cyanophenyl)ethyl)-6-((1-((1-hydroxy-2-methylpropan-2-yl)sulfonyl)cyclopropyl)methyl)-1-methyl-7-oxo-4,5,6,7-tetrahydro-1H-pyrazolo[3,4-c]pyridine-3-carboxamide], the IC50 was found to be 103 nM.

Consider `C[C@@H](NC(=O)c1nn(C)c2c1CCN(CC1(S(=O)(=O)C(C)(C)CO)CC1)C2=O)c1ccc(C#N)cc1` [Example 55, (R)-N-(1-(4-Cyanophenyl)ethyl)-6-((1-((1-hydroxy-2-methylpropan-2-yl)sulfonyl)cyclopropyl)methyl)-1-methyl-7-oxo-4,5,6,7-tetrahydro-1H-pyrazolo[3,4-c]pyridine-3-carboxamide], for which the IC50 was > 25000 nM.

For the compound `Cn1nc(C(=O)NCc2ccc(C#N)cc2)c2c1C(=O)N(CC1(S(=O)(=O)C(C)(C)COC(F)F)CC1)CC2` [Example 58, N-(4-Cyanobenzyl)-6-((1-((1-(difluoromethoxy)-2-methylpropan-2-yl)sulfonyl)cyclopropyl)methyl)-1-methyl-7-oxo-4,5,6,7-tetrahydro-1H-pyrazolo[3,4-c]pyridine-3-carboxamide], the IC50 was determined as 24 nM.

The values above are taken from patent US20250353820A1, “ANTIVIRAL PYRAZOLOPYRIDINONE COMPOUNDS” (Novartis AG, priority 2019, published 2025).
